Measurements as given in patent EP1247803A2, “Indolinone compounds suitable for modulation of protein kinases” (Sugen, Inc., priority 1996, dated 1998).

What was measured:
[1] = biological target: T1, FLK-1 receptor (Mus musculus, UniProt P35918); assay: FLK-1 ELISA (kinase activity of the FLK-1 receptor in FLK-1/NIH3T3 cells, VEGF stimulated); format: cell-based; design: concentration or dose not given beside the values
T1 construct: expressed in transfected cells; host or cells: NIH3T3 C7#3
In short: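 An ELISA using affinity-purified rabbit anti-FLK-1 antiserum on anti-rabbit IgG-coated plates measured VEGF-stimulated FLK-1 kinase activity. NIH3T3 C7#3 cells carrying FLK-1 were serum-starved (0.1% FBS) overnight, then exposed to compound (final 1:200 dilution, 0.5% DMSO) for two hours at 37 °C.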

[2] = system: MET; assay: MET biochemical kinase assay; design: species or system human; concentration or dose not given beside the values
In short: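 Plates coated with anti-rabbit Fc bind a rabbit anti-MET antibody that captures receptor from cell lysates; unbound protein is washed off before compound and ATP-containing kinase buffer go in.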

T1 sequence (P35918 20-1345): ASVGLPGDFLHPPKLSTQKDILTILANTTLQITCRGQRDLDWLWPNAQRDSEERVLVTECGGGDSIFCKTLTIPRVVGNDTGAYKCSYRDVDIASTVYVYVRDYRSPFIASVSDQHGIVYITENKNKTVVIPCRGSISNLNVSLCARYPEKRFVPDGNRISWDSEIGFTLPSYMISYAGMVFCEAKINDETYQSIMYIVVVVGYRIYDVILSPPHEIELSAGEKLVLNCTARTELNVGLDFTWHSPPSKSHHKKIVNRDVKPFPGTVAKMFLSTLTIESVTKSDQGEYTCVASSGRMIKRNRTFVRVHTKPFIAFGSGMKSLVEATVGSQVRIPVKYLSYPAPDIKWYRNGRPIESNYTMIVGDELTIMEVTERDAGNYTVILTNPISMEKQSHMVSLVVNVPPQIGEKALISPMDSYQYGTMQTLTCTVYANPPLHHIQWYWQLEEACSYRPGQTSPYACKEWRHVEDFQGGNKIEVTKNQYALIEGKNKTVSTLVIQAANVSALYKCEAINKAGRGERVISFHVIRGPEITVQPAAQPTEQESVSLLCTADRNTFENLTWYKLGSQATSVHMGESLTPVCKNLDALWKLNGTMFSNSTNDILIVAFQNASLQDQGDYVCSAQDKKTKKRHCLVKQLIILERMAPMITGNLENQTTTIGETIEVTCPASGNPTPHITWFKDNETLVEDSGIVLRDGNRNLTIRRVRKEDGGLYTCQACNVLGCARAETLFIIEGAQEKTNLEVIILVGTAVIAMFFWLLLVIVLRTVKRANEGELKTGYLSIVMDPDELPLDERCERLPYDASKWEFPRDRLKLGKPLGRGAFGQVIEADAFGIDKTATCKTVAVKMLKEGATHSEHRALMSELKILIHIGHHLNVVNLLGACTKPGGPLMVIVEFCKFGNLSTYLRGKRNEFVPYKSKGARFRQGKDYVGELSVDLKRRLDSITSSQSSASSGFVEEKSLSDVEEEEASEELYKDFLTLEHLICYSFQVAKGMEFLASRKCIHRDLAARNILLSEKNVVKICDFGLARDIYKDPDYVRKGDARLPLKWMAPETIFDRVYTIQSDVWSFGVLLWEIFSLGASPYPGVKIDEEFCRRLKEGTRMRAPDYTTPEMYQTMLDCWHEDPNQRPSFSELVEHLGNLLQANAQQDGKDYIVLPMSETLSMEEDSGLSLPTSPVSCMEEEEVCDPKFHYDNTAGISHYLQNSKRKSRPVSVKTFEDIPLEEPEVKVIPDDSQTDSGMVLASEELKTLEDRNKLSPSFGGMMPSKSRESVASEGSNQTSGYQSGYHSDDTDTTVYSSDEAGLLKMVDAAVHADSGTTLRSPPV

With `COc1cccc(C=C2C(=O)Nc3c(Br)cc(Br)cc32)c1O` [10723/A03] the “Fik Kinase %Inhibition” value [1] was 1.2% and the “Met Kinase % Inhibition” value [2] was 76.5%.
In the case of `O=C1Nc2ccc(S(=O)(=O)Nc3ccc(C(F)(F)F)cc3)cc2C1=Cc1ccc(Br)cc1` [10717/E08], the “Fik Kinase %Inhibition” value [1] is reported as 13.2% and the “Met Kinase % Inhibition” value [2] is reported as 51.7%.
In the case of `CNS(=O)(=O)c1ccc2c(c1)C(=Cc1cc(C(C)(C)C)cc(C(C)(C)C)c1O)C(=O)N2` [10723/D11], the “Fik Kinase %Inhibition” value [1] is reported as 14.8% and the “Met Kinase % Inhibition” value [2] is reported as 42.0%.
With `COc1ccc(C=C2C(=O)Nc3ccc(CCCl)cc32)c(O)c1` [10723/G09] the “Fik Kinase %Inhibition” value [1] was -1.8% and the “Met Kinase % Inhibition” value [2] was 80.7%.
In the case of `O=C1Nc2ccc(CCCl)cc2C1=Cc1ccc(F)cc1F` [10722/G06], the “Fik Kinase %Inhibition” value [1] is reported as 7.4% and the “Met Kinase % Inhibition” value [2] is reported as 12.2%.
In the case of `Cc1cc(C=C2C(=O)Nc3ccc(CCCl)cc32)ccc1O` [10723/G06], the “Fik Kinase %Inhibition” value [1] is reported as 14.1% and the “Met Kinase % Inhibition” value [2] is reported as 64.5%.
In the case of `Cc1cc(C=C2C(=O)Nc3ccc(I)cc32)ccc1O` [10723/B06], the “Fik Kinase %Inhibition” value [1] is reported as 31.8% and the “Met Kinase % Inhibition” value [2] is reported as 90.6%.
For `CNS(=O)(=O)c1ccc2c(c1)C(=Cc1ccc(O)c(C)c1)C(=O)N2` [10723/D06], the “Fik Kinase %Inhibition” value [1] was 17.6% and the “Met Kinase % Inhibition” value [2] was 60.0%.
`COc1ccc(C=C2C(=O)Nc3ccc(S(=O)(=O)Nc4ccc(C(F)(F)F)cc4)cc32)c(O)c1` [10723/E09] was tested, and the “Fik Kinase %Inhibition” value [1] was 7.9% and the “Met Kinase % Inhibition” value [2] was 91.7%.
With `COc1ccc(C=C2C(=O)Nc3ccc(Br)c(C)c32)c(O)c1` [10723/C09] the “Fik Kinase %Inhibition” value [1] was -22.3% and the “Met Kinase % Inhibition” value [2] was 84.6%.
`Cc1c(Br)ccc2c1C(=Cc1cc(C(C)(C)C)cc(C(C)(C)C)c1O)C(=O)N2` [10723/C11] was tested, and the “Fik Kinase %Inhibition” value [1] was 9.5% and the “Met Kinase % Inhibition” value [2] was 47.0%.
`O=C1Nc2ccc(S(=O)(=O)Nc3ccc(C(F)(F)F)cc3)cc2C1=Cc1ccc(O)cc1O` [10723/E08] was tested, and the “Fik Kinase %Inhibition” value [1] was -0.4% and the “Met Kinase % Inhibition” value [2] was 89.3%.
In the case of `CNS(=O)(=O)c1ccc2c(c1)C(=Cc1ccc(O)c(O)c1O)C(=O)N2` [10723/D02], the “Fik Kinase %Inhibition” value [1] is reported as 2.0% and the “Met Kinase % Inhibition” value [2] is reported as 93.0%.
`Cc1c(Br)ccc2c1C(=Cc1ccccc1Br)C(=O)N2` [10723/C07] was tested, and the “Fik Kinase %Inhibition” value [1] was 20.9% and the “Met Kinase % Inhibition” value [2] was 44.3%.
With `Cc1c(Br)ccc2c1C(=Cc1ccc(O)cc1O)C(=O)N2` [10723/C08] the “Fik Kinase %Inhibition” value [1] was -35.5% and the “Met Kinase % Inhibition” value [2] was 83.0%.
In the case of `COc1cccc(C=C2C(=O)Nc3ccc(S(=O)(=O)Nc4ccc(C(F)(F)F)cc4)cc32)c1O` [10723/E03], the “Fik Kinase %Inhibition” value [1] is reported as 8.7% and the “Met Kinase % Inhibition” value [2] is reported as 76.8%.
For `CC(C)(C)c1cc(C=C2C(=O)Nc3ccc(CCCl)cc32)cc([N+](=O)[O-])c1O` [10722/G02], the “Fik Kinase %Inhibition” value [1] was 15.1% and the “Met Kinase % Inhibition” value [2] was 43.0%.
With `O=C1Nc2ccc(S(=O)(=O)Nc3ccc(C(F)(F)F)cc3)cc2C1=Cc1ccc(O)c(O)c1O` [10723/E02] the “Fik Kinase %Inhibition” value [1] was 8.1% and the “Met Kinase % Inhibition” value [2] was 97.9%.
`Cc1c(Br)ccc2c1C(=Cc1cccc(Br)c1)C(=O)N2` [10723/C10] was tested, and the “Fik Kinase %Inhibition” value [1] was 9.5% and the “Met Kinase % Inhibition” value [2] was 43.8%.
With `COc1cccc(C=C2C(=O)Nc3ccc(CCCl)cc32)c1O` [10723/G03] the “Fik Kinase %Inhibition” value [1] was 4.3% and the “Met Kinase % Inhibition” value [2] was 74.7%.
In the case of `CC(=O)Oc1ccc(C=C2C(=O)Nc3c(Br)cc(Br)cc32)cc1OC(C)=O` [10723/A05], the “Fik Kinase %Inhibition” value [1] is reported as -17.8% and the “Met Kinase % Inhibition” value [2] is reported as 75.7%.
`O=C1Nc2ccc(S(=O)(=O)Nc3ccc(C(F)(F)F)cc3)cc2C1=Cc1cccc(Br)c1` [10723/E10] was tested, and the “Fik Kinase %Inhibition” value [1] was 5.2% and the “Met Kinase % Inhibition” value [2] was 59.5%.
`CCOc1ccccc1C=C1C(=O)Nc2ccc(S(=O)(=O)Nc3ccc(C(F)(F)F)cc3)cc21` [10717/E02] was tested, and the “Fik Kinase %Inhibition” value [1] was 17.9% and the “Met Kinase % Inhibition” value [2] was 24.0%.
In the case of `O=C1Nc2ccc(CCCl)cc2C1=Cc1ccc(C(=O)O)cc1` [10722/G05], the “Fik Kinase %Inhibition” value [1] is reported as 10.8% and the “Met Kinase % Inhibition” value [2] is reported as 9.7%.
`Cc1cc(C=C2C(=O)Nc3ccc(S(=O)(=O)Nc4ccc(C(F)(F)F)cc4)cc32)ccc1O` [10723/E06] was tested, and the “Fik Kinase %Inhibition” value [1] was 19.3% and the “Met Kinase % Inhibition” value [2] was 74.4%.
With `COc1cccc(C=C2C(=O)Nc3ccc(Br)c(C)c32)c1O` [10723/C03] the “Fik Kinase %Inhibition” value [1] was -3.1% and the “Met Kinase % Inhibition” value [2] was 88.8%.
`O=C1Nc2ccc(CCCl)cc2C1=Cc1ccc(O)c(O)c1O` [10723/G02] was tested, and the “Fik Kinase %Inhibition” value [1] was -1.6% and the “Met Kinase % Inhibition” value [2] was 99.2%.
For `CC(C)(C)c1cc(C=C2C(=O)Nc3ccc(I)cc32)c(O)c(C(C)(C)C)c1` [10723/B11], the “Fik Kinase %Inhibition” value [1] was 6.3% and the “Met Kinase % Inhibition” value [2] was 62.6%.
`CNS(=O)(=O)c1ccc2c(c1)C(=Cc1ccccc1Br)C(=O)N2` [10723/D07] was tested, and the “Fik Kinase %Inhibition” value [1] was 15.8% and the “Met Kinase % Inhibition” value [2] was 21.9%.
With `O=C1Nc2ccc(I)cc2C1=Cc1cc(O)c(O)c(Br)c1` [10723/B04] the “Fik Kinase %Inhibition” value [1] was 18.7% and the “Met Kinase % Inhibition” value [2] was 90.6%.
`O=C1Nc2ccc(CCCl)cc2C1=Cc1ccc([N+](=O)[O-])s1` [10722/G04] was tested, and the “Fik Kinase %Inhibition” value [1] was 7.2% and the “Met Kinase % Inhibition” value [2] was 63.2%.
With `CC(=O)Oc1ccc(C=C2C(=O)Nc3ccc(CCCl)cc32)cc1OC(C)=O` [10723/G05] the “Fik Kinase %Inhibition” value [1] was -9.4% and the “Met Kinase % Inhibition” value [2] was 79.9%.
For `COc1ccc(C=C2C(=O)Nc3ccc(I)cc32)c(O)c1` [10723/B09], the “Fik Kinase %Inhibition” value [1] was 2.7% and the “Met Kinase % Inhibition” value [2] was 57.7%.
For `O=C1Nc2ccc(S(=O)(=O)N3CCOCC3)cc2C1=Cc1cc(O)c(O)c(Br)c1` [10723/F04], the “Fik Kinase %Inhibition” value [1] was 12.3% and the “Met Kinase % Inhibition” value [2] was 94.0%.
For `CC(C)(C)c1cc(C=C2C(=O)Nc3c(Br)cc(Br)cc32)c(O)c(C(C)(C)C)c1` [10723/A11], the “Fik Kinase %Inhibition” value [1] was 42.9% and the “Met Kinase % Inhibition” value [2] was 60.0%.
For `COc1ccc(C=C2C(=O)Nc3c(Br)cc(Br)cc32)c(O)c1` [10723/A09], the “Fik Kinase %Inhibition” value [1] was -1.0% and the “Met Kinase % Inhibition” value [2] was 85.9%.
For `CC(C)(C)c1cc(C=C2C(=O)Nc3ccc(CCCl)cc32)cc(Cl)c1O` [10722/G08], the “Fik Kinase %Inhibition” value [1] was 8.2% and the “Met Kinase % Inhibition” value [2] was 66.1%.
In the case of `O=C1Nc2c(Br)cc(Br)cc2C1=Cc1ccc(O)c(O)c1O` [10723/A02], the “Fik Kinase %Inhibition” value [1] is reported as -5.5% and the “Met Kinase % Inhibition” value [2] is reported as 100.8%.
For `Cc1c(Br)ccc2c1C(=Cc1ccc(O)c(O)c1O)C(=O)N2` [10723/C02], the “Fik Kinase %Inhibition” value [1] was 9.6% and the “Met Kinase % Inhibition” value [2] was 100.6%.
With `O=C1Nc2ccc(CCCl)cc2C1=Cc1cc(O)c(O)c(Br)c1` [10723/G04] the “Fik Kinase %Inhibition” value [1] was 8.7% and the “Met Kinase % Inhibition” value [2] was 85.9%.
`CCCCN(CCCC)c1ccc(C=C2C(=O)Nc3ccc(CCCl)cc32)cc1` [10722/G10] was tested, and the “Fik Kinase %Inhibition” value [1] was -1.7% and the “Met Kinase % Inhibition” value [2] was 27.0%.
In the case of `O=C1Nc2ccc(S(=O)(=O)Nc3ccc(C(F)(F)F)cc3)cc2C1=Cc1c[nH]c2ccccc12` [10717/E06], the “Fik Kinase %Inhibition” value [1] is reported as 7.5% and the “Met Kinase % Inhibition” value [2] is reported as 24.8%.
For `O=C1Nc2c(Br)cc(Br)cc2C1=Cc1ccccc1Br` [10723/A07], the “Fik Kinase %Inhibition” value [1] was -6.1% and the “Met Kinase % Inhibition” value [2] was 63.2%.
For `Cc1cc(C=C2C(=O)Nc3ccc(CCCl)cc32)cc(C)c1O` [10722/G07], the “Fik Kinase %Inhibition” value [1] was 8.0% and the “Met Kinase % Inhibition” value [2] was 41.2%.
For `CNS(=O)(=O)c1ccc2c(c1)C(=Cc1ccc(O)cc1O)C(=O)N2` [10723/D08], the “Fik Kinase %Inhibition” value [1] was -4.5% and the “Met Kinase % Inhibition” value [2] was 53.5%.
`Cc1c(Br)ccc2c1C(=Cc1cc(O)c(O)c(Br)c1)C(=O)N2` [10723/C04] was tested, and the “Fik Kinase %Inhibition” value [1] was 8.8% and the “Met Kinase % Inhibition” value [2] was 91.9%.
For `CC(=O)Oc1ccc(C=C2C(=O)Nc3ccc(Br)c(C)c32)cc1OC(C)=O` [10723/C05], the “Fik Kinase %Inhibition” value [1] was 5.6% and the “Met Kinase % Inhibition” value [2] was 73.1%.
`CC(=O)Oc1ccc(C=C2C(=O)Nc3ccc(S(=O)(=O)Nc4ccc(C(F)(F)F)cc4)cc32)cc1OC(C)=O` [10723/E05] was tested, and the “Fik Kinase %Inhibition” value [1] was 8.9% and the “Met Kinase % Inhibition” value [2] was 63.7%.
With `O=C1Nc2ccc(S(=O)(=O)Nc3ccc(C(F)(F)F)cc3)cc2C1=Cc1ccc(F)cc1` [10717/E05] the “Fik Kinase %Inhibition” value [1] was 13.2% and the “Met Kinase % Inhibition” value [2] was 39.1%.
In the case of `CNS(=O)(=O)c1ccc2c(c1)C(=Cc1cccc(Br)c1)C(=O)N2` [10723/D10], the “Fik Kinase %Inhibition” value [1] is reported as 6.5% and the “Met Kinase % Inhibition” value [2] is reported as 38.1%.
`O=C1Nc2c(Br)cc(Br)cc2C1=Cc1ccc(O)cc1O` [10723/A08] was tested, and the “Fik Kinase %Inhibition” value [1] was -12.9% and the “Met Kinase % Inhibition” value [2] was 77.3%.
